Experimental data: the Deep4Chem optical property database
Values joined by “and” are separate entries in the source; they are usually repeats but may differ in a detail not shown here. Equal values may be shown once. Values belong to the compound of their own block, whether it stands above or below them.

Test: solvent given as SMILES
[1] = in O=P(c1ccccc1)(c1ccccc1)c1ccccc1Oc1ccccc1P(=O)(c1ccccc1)c1ccccc1
[2] = in O=P(c1ccccc1)(c1ccccc1)c1cccc(-c2cc(-n3c4ccccc4c4ccccc43)cc(-n3c4ccccc4c4ccccc43)c2)n1

SMILES: c1ccc(-c2cc(-c3ccc4ccc5cccc6ccc3c4c56)ccn2)nc1
fluorescence lifetime (in C1CCOC1): 6.5 ns
fluorescence lifetime (in CC#N): 4.7 ns
fluorescence lifetime (in CCC#N): 4.6 ns
fluorescence lifetime (in CCCC#N): 5.5 ns
fluorescence lifetime (in CCCCCC): 8.1 ns
fluorescence lifetime (in CCCO): 3.5 ns
fluorescence lifetime (in CCO): 3.5 ns
fluorescence lifetime (in CO): 3.1 ns
fluorescence lifetime (in Cc1ccccc1): 6 ns

fluorescence lifetime (in ClCCl): 6.9 ns
SMILES: CC1=CC(C)=[N+]2C1=C(c1c(-c3ccccn3)nc3ccccn13)c1c(C)cc(C)n1[B-]2(F)F

fluorescence lifetime (in C1CCCCC1): 21.8 ns
fluorescence lifetime (in CC#N): 26.7 ns
fluorescence lifetime (in CO): 25.2 ns
fluorescence lifetime (in ClCCl): 22 ns
SMILES: COc1c2ccccc2c(OC)c2c1c1cccc(OC)c1n2C

fluorescence lifetime (in C1CCCCC1): 2.3 ns
fluorescence lifetime (in CCOC(C)=O): 0.58 ns
SMILES: C#CCNC1=C2C=C(c3cc4n(c3)[B-](F)(F)[N+]3=CC=CC3=C4c3c(C)cc(C)cc3C)C(C)=[N+]2[B-](F)(F)n2c(C)ccc21

SMILES: Cc1ccc2c(c1)C1(c3ccccc3-c3ccccc31)c1cc(C)ccc1N2c1ccc(-c2nc(-c3ccccc3)cc(-c3ccccc3)n2)cc1
fluorescence lifetime (in O=P(c1ccccc1)(c1ccccc1)c1ccc2oc3ccc(P(=O)(c4ccccc4)c4ccccc4)cc3c2c1): 12 ns

fluorescence lifetime (in ClCCl): 0.834 ns
SMILES: Cc1nc(-c2cc(N)ccc2O)n2c1CCCC2

SMILES: CC1(C)c2ccccc2-c2cc3c4ccccc4n(-c4ccc(-c5nc(-c6ccccc6)nc(-c6ccccc6)n5)cc4)c3cc21
fluorescence lifetime [1]: 9.3 ns

fluorescence lifetime (in ClCCl): 2.83 ns
SMILES: COC(=O)c1cc(=O)n(C)c2cc(-c3ccc(Oc4ccccc4)cc3)sc12

fluorescence lifetime (in ClC(Cl)Cl): 0.436 ns
SMILES: F[B-]1(F)OC(c2ccc(Br)cc2)=Cc2c3ccccc3c3ccccc3[n+]21

fluorescence lifetime (in ClC(Cl)Cl): 4.2 ns
SMILES: Cc1ccc(/C2=c3\cc/c(o3)=C(\c3ccc(C)cc3)c3ccc([nH]3)-c3ccc4n3[P-](=O)(=O)[N+]3=C(C=CC3=C4c3ccco3)c3ccc2[nH]3)cc1

fluorescence lifetime (in CC#N): 2.85 ns
SMILES: N#C/C(=C\c1ccc(C#N)cc1)c1nc(-c2ccc(Cl)cc2)cs1

fluorescence lifetime (in C1CCCCC1): 2.67 ns
fluorescence lifetime (in CCOC(C)=O): 0.92 ns
SMILES: CC1=[N+]2C(=C(c3cccs3)c3ccc(C)n3[B-]2(F)F)C=C1c1cc2n(c1)[B-](F)(F)[N+]1=CC=CC1=C2c1c(C)cc(C)cc1C

SMILES: Cc1cc(-c2ccc(-n3c4ccccc4c4ccccc43)cc2)nc(-c2ccc(-n3c4ccccc4c4ccccc43)cc2)n1
fluorescence lifetime (in C1CCOC1): 4.26 ns
fluorescence lifetime (in CN(C)C=O): 7.57 ns
fluorescence lifetime (in Cc1ccccc1): 2.44 ns
fluorescence lifetime (in ClC(Cl)Cl): 4.11 ns

SMILES: N#Cc1nc2c3ccc(N(c4ccccc4)c4ccccc4)cc3c3cc(N(c4ccccc4)c4ccccc4)ccc3c2nc1C#N
fluorescence lifetime [2]: 13.4 ns

SMILES: c1ccc(-c2nnc(-c3ccc(N4c5ccccc5Oc5ccccc54)cc3)o2)cc1
fluorescence lifetime (in Cc1ccccc1): 11 ns
fluorescence lifetime (in c1ccc(-n2c(-c3c(-n4c5ccccc5c5ccccc54)cccc3-n3c4ccccc4c4ccccc43)nc3ccccc32)cc1): 4.9 ns

fluorescence lifetime (in C1CCCCC1): 2.84 ns
fluorescence lifetime (in CCOC(C)=O): 0.81 ns
SMILES: CC1=[N+]2C(=C(c3ccccc3C)c3ccc(C)n3[B-]2(F)F)C=C1c1cc2n(c1)[B-](F)(F)[N+]1=CC=CC1=C2c1c(C)cc(C)cc1C

SMILES: Cc1cc(C)c(B(c2ccc(N(c3ccccc3)c3ccccc3)cc2)c2c(C)cc(C)cc2C)c(C)c1
fluorescence lifetime (in Cc1ccccc1): 4 ns

fluorescence lifetime (in CCCCCCCCO): 0.64 ns
fluorescence lifetime (in CCO): 0.06 ns
fluorescence lifetime (in CO): 0.04 ns
fluorescence lifetime (in ClC(Cl)Cl): 0.64 ns
fluorescence lifetime (in ClCCl): 0.32 ns
SMILES: CN(C)c1ccc(/C=C/c2cc[n+](Cc3cc(C[n+]4ccc(/C=C/c5ccc(N(C)C)cc5)cc4)cc(C[n+]4ccc(/C=C/c5ccc(N(C)C)cc5)cc4)c3)cc2)cc1

fluorescence lifetime (in CC#N): 3.61 ns
SMILES: COc1ccc(-c2csc(/C(C#N)=C/c3ccc(Cl)cc3)n2)cc1

fluorescence lifetime (in C1CCCCC1): 3.1 ns
fluorescence lifetime (in c1ccccc1): 0.63 ns
SMILES: CNc1ccc2c(c1)C(=O)c1ccccc1-2

fluorescence lifetime (in O): 3.43 ns
SMILES: Cn1ccc(-n2cncn2)nc1=O

SMILES: Cn1c(/C=C/c2ccc(/C=C/c3nc4ccccc4[nH]3)cc2)[n+](C)c2ccccc21
fluorescence lifetime (in C1CCOC1): 1.43 ns
fluorescence lifetime (in CC#N): 1.16 ns
fluorescence lifetime (in CC(C)=O): 1.15 ns
fluorescence lifetime (in CN(C)C=O): 1.11 ns
fluorescence lifetime (in CO): 0.773 ns
fluorescence lifetime (in CS(C)=O): 1.22 ns
fluorescence lifetime (in O): 0.42 ns

fluorescence lifetime (in ClCCl): 0.3 ns
SMILES: CCOC(=O)/N=c1/oc2ccc(OC)cc2cc1C#N

fluorescence lifetime (in C1CCOC1): 2.4 ns
fluorescence lifetime (in C1COCCO1): 2.41 ns
fluorescence lifetime (in CC#N): 2.32 ns
fluorescence lifetime (in CC(C)O): 2.11 ns
fluorescence lifetime (in CCO): 2.04 ns
fluorescence lifetime (in CCOC(C)=O): 2.41 ns
fluorescence lifetime (in CN(C)C=O): 2.59 ns
fluorescence lifetime (in CO): 1.66 ns
fluorescence lifetime (in CS(C)=O): 2.56 ns
fluorescence lifetime (in O): 3.35 ns
SMILES: Cc1ccc(C2CC(c3ccc(O)cc3)=NN2c2ccc(S(N)(=O)=O)cc2)cc1 (stereo not drawn)

fluorescence lifetime (in ClCCl): 1.94 ns
SMILES: COc1ccc(-c2cc3c(s2)c(C(C)=O)cc(=O)n3Cc2ccccc2)cc1

fluorescence lifetime (in ClCCl): 2.59 ns
SMILES: CCCCOc1ccc(-c2cc3c(o2)c(-c2ccc(OCCCC)cc2)c2n3[B-](F)(F)[N+]3=Cc4c(-c5ccc(OCCCC)cc5)c5oc(-c6ccc(OCCCC)cc6)cc5n4[B-](F)(F)[N+]3=C2)cc1

fluorescence lifetime (in ClCCl): 0.3 ns
SMILES: CCOC(=O)/N=c1/oc2c(OC)cccc2cc1C#N

fluorescence lifetime (in ClC(Cl)Cl): 3.19 ns
SMILES: F[B-]1(F)OC(c2cc3c4c(c2)CCCN4CCC3)=Cc2cccc[n+]21

fluorescence lifetime (in ClCCl): 1.2 ns
SMILES: CC(C)c1cccc(C(C)C)c1N1C(=O)c2cccc3c(Oc4ccc(C(C)(C)c5ccccc5)cc4)ccc(c23)C1=O

fluorescence lifetime (in ClCCl): 3.4 ns
SMILES: CC1=C(c2ccccc2)C(C)=[N+]2C1=C(c1c(-c3ccccn3)nc3ccccn13)c1c(C)c(-c3ccccc3)c(C)n1[B-]2(F)F

fluorescence lifetime (in CCO): 0.03 ns
SMILES: CC1(C)CC(/C=C/c2ccc(-n3ccnc3)cc2)=CC(=C(C#N)C#N)C1

SMILES: CC1(C)c2ccccc2N(c2ccc(-c3cc(-c4ccccc4)nc(-c4ccccc4)n3)cc2)c2ccccc21
fluorescence lifetime (in Cc1ccccc1): 4.23 ns
fluorescence lifetime (in ClCCl): 25 ns

SMILES: c1ccc(-c2nnc(-c3cc(-c4nnc(-c5ccccc5)o4)c(-n4c5ccccc5c5ccccc54)cc3-n3c4ccccc4c4ccccc43)o2)cc1
fluorescence lifetime (in Cc1ccccc1): 4.9 ns
fluorescence lifetime [1]: 8.6 ns

fluorescence lifetime (in ClCCl): 1.1 ns
SMILES: CN(c1ccccc1)c1ccc(N(c2ccccc2)c2ccc3ccc4c(N(c5ccccc5)c5ccc(N(C)c6ccccc6)cc5)ccc5ccc2c3c54)cc1

fluorescence lifetime (in ClCCl): 1.7 ns
SMILES: COCCOCCOCCOCC(COCCOCCOCCOC)Oc1cc(/C=C/c2ccc(/C=C(\C#N)c3ccncc3)cc2)c(OC(COCCOCCOCCOC)COCCOCCOCCOC)cc1/C=C/c1ccc(/C=C(\C#N)c2ccncc2)cc1

fluorescence lifetime (in ClCCl): 0.063 ns
SMILES: CC(C)(C)c1cc(-n2c(-c3ccc(C(=C(c4ccccc4)c4ccccc4)c4ccccc4)cc3)cc3c2cc(-c2ccc(C(=C(c4ccccc4)c4ccccc4)c4ccccc4)cc2)n3-c2cc(C(C)(C)C)cc(C(C)(C)C)c2)cc(C(C)(C)C)c1

fluorescence lifetime (in ClC(Cl)Cl): 6.4 ns
SMILES: CCCCCCN1C(=O)C(c2ccc(-c3ccc(-n4c5ccccc5c5ccccc54)cc3)cc2)=C(c2ccc(-c3ccc(-n4c5ccccc5c5ccccc54)cc3)cc2)C1=O
fluorescence lifetime (in c1ccc2c(c1)c1ccccc1n2-c1ccc(-c2ccc(-n3c4ccccc4c4ccccc43)cc2)cc1): 5.5 ns

SMILES: CC1(C)c2ccccc2N(c2ccc(-c3ccc4c(c3)c3cc(-c5ccc(N6c7ccccc7C(C)(C)c7ccccc76)cc5)ccc3c3nc(C#N)c(C#N)nc43)cc2)c2ccccc21
fluorescence lifetime [2]: 53.6 ns

fluorescence lifetime (in O): 0.038 ns
SMILES: Cc1cc(=O)oc2cc(/[NH+]=C/C=C3/C=C(C(=O)O)NC(C(=O)O)C3)ccc12 (stereo not drawn)

fluorescence lifetime (in CC#N): 1.92 ns
SMILES: COc1ccc(-c2csc(/C(C#N)=C/c3ccncc3)n2)cc1

SMILES: CCCCCCCCCCn1nnc(-c2ccc(C#Cc3ccc(C#Cc4ccc(-c5nnn(CCCCCCCCCC)n5)cc4)c4nc5c6ccccc6c6ccccc6c5nc34)cc2)n1
fluorescence lifetime (in C1CCOC1): 3.66 ns
fluorescence lifetime (in Cc1ccccc1): 2.52 ns
fluorescence lifetime (in ClCCl): 4.8 ns

fluorescence lifetime (in O): 4.2 ns
SMILES: O=S(=O)([O-])c1cc(S(=O)(=O)Cl)ccc1C1=c2cc3c4c(c2Oc2c1cc1c5c2CCCN5CCC1)CCC[N+]=4CCC3

fluorescence lifetime (in CC#N): 0.66 ns
SMILES: Cc1ccc(-c2ccc(/C=C/c3ccc(Br)n3C)cn2)nc1

fluorescence lifetime (in ClCCl): 6.4 ns
SMILES: CC(C)(C)c1ccc(-c2nc3c4ccccc4c4ccccc4c3n2-c2ccc(C(C)(C)C)cc2)cc1

SMILES: COc1cc(-c2cc(-c3ccc(C)cc3)nc3c(C#N)c(N4CCCC4)nc(N)c23)cc(OC)c1OC
fluorescence lifetime (in CC#N): 10.7 ns
fluorescence lifetime (in CC(C)=O): 10.4 ns
fluorescence lifetime (in CC(C)O): 10.3 ns
fluorescence lifetime (in CO): 8.46 ns
fluorescence lifetime (in ClC(Cl)Cl): 12.8 ns
fluorescence lifetime (in ClCCl): 12.6 ns
fluorescence lifetime (in c1ccccc1): 12.5 ns

fluorescence lifetime (in C1CCCCC1): 0.8 ns
SMILES: COc1cc(OC)c2c(c1)C(=O)c1cc(OC)cc(OC)c1-2

fluorescence lifetime (in CC#N): 1.47 ns
SMILES: C(#Cc1ccccc1C#Cc1ccccc1)c1ccccc1

fluorescence lifetime (in C1CCOC1): 6 ns
SMILES: CCCCn1c2ccccc2c2c1c1c3ccccc3n(CCCC)c1c1c3ccccc3n(CCCC)c21

fluorescence lifetime (in C1CCCCC1): 168 ns and 96 ns
SMILES: c1ccc2ccccc2c1

SMILES: N#Cc1nc2c3ccc(-c4ccc(-n5c6ccccc6c6ccccc65)cc4)cc3c3cc(-c4ccc(-n5c6ccccc6c6ccccc65)cc4)ccc3c2nc1C#N
fluorescence lifetime [2]: 40.6 ns

fluorescence lifetime (in C1CCCCC1): 0.63 ns
fluorescence lifetime (in C1COCCO1): 0.73 ns
fluorescence lifetime (in CC#N): 1.13 ns
fluorescence lifetime (in CCO): 1.03 ns
fluorescence lifetime (in CS(C)=O): 1.17 ns
fluorescence lifetime (in ClC(Cl)Cl): 0.78 ns
fluorescence lifetime (in ClCCl): 0.87 ns
SMILES: COc1ccc(C#Cc2ccc(C#Cc3ccc(P(=O)(c4ccccc4)c4ccccc4)cc3)cc2)cc1

fluorescence lifetime (in ClCCl): 0.94 ns
SMILES: F[B-]1(F)OC(C#Cc2ccccc2)=CC(c2ccccc2)=[O+]1

fluorescence lifetime (in C1CCCCC1): 2.7 ns
fluorescence lifetime (in CCOC(C)=O): 0.911 ns
SMILES: CC1=[N+]2C(=C(Oc3ccc4c(c3)CC[C@@H]3[C@@H]4CC[C@]4(C)C(=O)CC[C@@H]34)c3ccc(C)n3[B-]2(F)F)C=C1c1cc2n(c1)[B-](F)(F)[N+]1=CC=CC1=C2c1c(C)cc(C)cc1C

fluorescence lifetime (in O): 4.2 ns
SMILES: CC[n+]1nc2cc3c4c(c2c2cc(C)ccc21)CCCN4CCC3

fluorescence lifetime (in CC#N): 4.5 ns
SMILES: O=c1oc2cc(S(=O)(=O)O)c3ccccc3c2nc1-c1ccccc1

fluorescence lifetime (in ClCCl): 1.39 ns
SMILES: Cc1c(C(=O)c2ccc(C(F)(F)F)cc2)c2ccc3cccc4c5cccc6ccc1c(c65)c2c34

fluorescence lifetime (in O): 13.5 ns
SMILES: [NH3+]c1ccc2ccc([O-])cc2c1
